Data published in US11028127B2, “Peptides capable of reactivating p53 mutants” (Yeda Research and Development Co. Ltd., priority 2013, dated 2021).

Biological target: T1, Mut-p53 (R175H p53) (Homo sapiens, UniProt P04637, R175H)
T1 construct: a hot spot full length mutant p53 Mut-p53 R175H (R175H p53); expressed in transfected cells; host or cells: H1299 (p53-null) cells stably overexpressing R175H p53; cell extract
Assay: Sandwich ELISA for p53 conformation (PAb1620/PAb240 reactivity)
Format: biochemical
Experimental: To measure the conformational effect of the peptides on Mut-p53, a micro-titer plate was coated with either PAb240, PAb1620 or pAb421 (as a positive control and standard for total p53 protein, since the antibody used recognizes both WT and mutant conformations), overnight incubated, washed, blocked, and cell extracts (with or without peptides) were added for an additional 2 hours. After removal of extracts, plates were washed and incubated with the αp53-HRP conjugated Ab for the detection of p53 levels. A TMB (substrate of HRP) assay was performed and optical density was determined at 450 nm. WT p53 served as a positive control for reactivity with PAb1620, and Mut-p53 served as a negative control. The results are presented as the ratio of absorbance between the PAb1620 or PAb240 samples and the control […] sample. MCF7 and H1299-Mut-p53 (ts) A135V (TS) cells were used as positive controls for the WT p53 conformation (1620/240 ratio equals or exceeds 5:1).
96-well plates were coated using 3 different antibodies (1 type of antibody (Ab) in each well): PAb421 recognizes both conformations of p53 and binds to a C-terminus epitope; PAb240 recognizes mutant conformation of p53, binds to epitope within the core domain (amino acids 212-217) (Stephen, C. W. and D. P. Lane, Mutant conformation of p53. Precise epitope mapping using a filamentous phage epitope library. J. Mol. Biol., 1992. 225(3): p. 577-83) which is accessible to the Ab when the protein is partially denatured (for example, when the DBD is mutated); and PAb1620, which recognizes WT conformation of p53, binds to epitope with in the core domain (aa 156, 206-210), formed when folding is in WT conformation (Wang, P. L., F. Salt, and G. Winter, The ‘wild type’ conformation of p53: epitope mapping using hybrid proteins. Oncogene, 2001. 20(18): p. 2318-24).
Wells were incubated overnight (ON) with 100 μl Ab (5 μg/ml) in room temp (RT). The liquid was discarded, and the wells were washed 3 times with Phosphate buffered saline (PBS), 200 μl per each wash. Next, blocking with 200 μl of 5% bovine serum albumin (BSA) diluted in PBS in each well for 1.5 hours at room temperature (RT) was performed. Blocking buffer was discarded, followed by 3 washes in PBS as described above. Samples of mutant and WT p53 proteins (100 μl, 10 μg/ml), together with control peptides pCAP-710 (LPNPPER, SEQ ID NO:328) and pCAP-1220 ([…], SEQ ID NO:368) (5 μg/ml, Sigma Aldrich, or with test peptides 1-153 (5 μg/ml), were incubated for 1.5 hours together, and then added to the wells. Samples were rotated and incubated for 1 hour at RT. Samples were discarded, following 4 washes as described above, using Trisphosphate buffered saline (TPBS). Next, horseradish peroxidase (HRP) conjugated streptavidin p53 antibody (10 μg/ml HAF1355 (R&D)) was added to the wells and incubated at RT for 1 hour. After the plate was washed 3 times in TPBS, TMB substrate solution (50 μl each well, Thermo, (Cat. No. ES001-1L-K)) was added and incubated at 37° c. for 20 min. The reaction was stopped with 2M sulfuric acid (50 μl). The absorbance was measured at 450 nm with a spectrophotometer. Protein concentration was determined by dividing the absorbencies of each sample to the absorbance of Ab 421 samples.
The first screening strategy was based on ELISA. A version of sandwich ELISA was used to examine the effect of the lead test peptides on p53 conformation. To measure the conformational effect of the peptides on Mut-p53, a micro-titer plate was coated with PAb240, PAb1620 or pAb421 (as a positive control), and then the reactivity of p53 to these antibodies was examined. WT p53 served as a positive control for reactivity with PAb1620, and Mut-p53 served as a negative control. To examine the effect of a tested peptide it was added to a solution containing Mut-p53 and change in reactivity to either Ab was tested. […] Several ELISA experiments using different cell extracts were performed. […]

Sequence: YRRLLIGMMWRRRRRRRRRRR [pCAP-68]
- effect on Mut-p53 conformation (conformational change): significant shift in Mut-p53 conformation towards PAb1620
- reactivity of R175H Mut-p53 towards PAb1620 and PAb240 (conformational change) (extract of H1299 cells overexpressing R175H p53, peptide 50 ng/ml, 2 hours): increased reactivity of R175H Mut-p53 towards PAb1620 and decreased reactivity towards PAb240
